Results from patent US20230183187A1, “QUINAZOLINE COMPOUNDS AS INHIBITORS OF PREMATURE TERMINATION CODONS” (CENTRE NATIONAL DE LA RECHERCHE SCIENTIFIQUE, priority 2020, published 2023).

Tests used:
[1] = system: TP53 R213X nonsense mutation; assay: Dual reporter (lacZ/F-luc, pAC99) stop codon readthrough quantification, R213X, NIH3T3 cells; assay type: cell-based, mouse; details: 24 h, each drug separately or together
Excerpt: (§1) Complementary oligonucleotides corresponding to TP53 R213X nonsense mutations and 9 nucleotides on both sides are ligated into the pAC99 dual reporter plasmid, as previously described (Premature stop codons involved in muscular dystrophies show a broad spectrum of readthrough efficiencies in response to gentamicin treatment, Bidou et al, Gene Therapy 1 Apr. 2004, 11(7):619-627). This dual reporter is used to quantify stop-codon readthrough through the measurement of luciferase and beta-galactosidase (internal calibration) activities, as previously described (Stahl et al, Versatile vectors to study recoding: conservation of rules between yeast and mammalian cells. Nucleic Acids Res 1995; 23:1557-60). Readthrough levels for nonsense mutations were analysed in the presence or absence of tested molecules. Cells were seeded in a 6-well plate. The next day, cells are transfected with the reporter plasmid in the presence of JetPei reagent (Invitrogen). The following day, they are rinsed with fresh medium, with or without readthrough inducers. […] Readthrough efficiency was estimated by calculating the ratio of luciferase activity to beta-galactosidase activity obtained with the test construct, with normalisation against an in-frame control construct. […]

TP53-R213X mRNA = assay: RT-qPCR of mutant p53 mRNA in HDQ-P1 cells; assay type: cell-based, human; details: HDQ-P1, 48 hours; TLN68 80 μM, TLN309 40 μM; n=3
Experimental: For the analysis of mRNA levels for p53 and its transcriptional target genes, Bax, the inventors extracted total RNA from HDQ-P1 cells that had or had not been treated with G418 (400 μM) or TLN68 (80 μM) for 48 hours (RNeasy Mini Kit, Qiagen). The RNA was treated with DNAse I (RNase-free DNase) and quantified with a Nanodrop spectrometer (ThermoScientific). The absence of RNA degradation was confirmed by agarose gel electrophoresis. The first-strand cDNA was synthesized from 2 μg of total RNA, with random primers and the SuperScript II Reverse Transcriptase (Invitrogen), as recommended by the manufacturer. Quantitative PCR was then carried out on equal amounts of the various cDNAs, with a CFX96 thermocycler (Biorad), and the accumulation of products was monitored with the intercalating dye FastStart Universal SYBRGreen Master (ROX) reagent (Roche). The inventors quantified mRNA levels relative to three reference mRNAs: RPL32, Hprt1 and HMBS. In each experiment, results are expressed relative to those for untreated cells, for which the value obtained was set to 1. Relative levels of gene expression were calculated at early stages of PCR, when the amplification was exponential and might, therefore, be correlated with the initial number of copies of the transcript. […] For the quantification of each mRNA, three independent experiments (from biological replicates) were performed in triplicate. […]

[2] = system: p53-R213X transcriptional activity; assay: TP53 protein activity assay (p53BS-luc reporter) in H1299 cells; assay type: cell-based, human; details: H1299 cotransfected with pCMV-R213X, pCMVLacZ, 20 hours, TLN68 20, 50, 80 and 100 mM as printed
Experimental: The inventors investigated the transcriptional activity of the p53 protein in H1299, a p53-null cell line. Cells were cotransfected, by the JetPei method, with the p53BS-luc reporter plasmid containing the firefly luciferase gene downstream from seven p53 binding sites, the pCMVLacZ and the pCMVp53R213X containing the p53 cDNA interrupted by the stop mutation R213X. TLN68 ([…]) was added to the medium just before transfection for a total of 20 hours of treatment. Protein extracts were then prepared and enzymatic activities were measured. Transfection with pCMVLacZ was used to normalise transfection efficiency, cell viability and protein extraction. At least six independent transfection experiments were performed for each set of conditions.

[3] = system: 40 more frequent nonsense mutations found in DMD gene; assay: Dual reporter readthrough on the 40 most frequent DMD nonsense mutations; assay type: cell-based; parameters: number of DMD nonsense sequences on which readthrough is promoted: dose or concentration left out as unconfirmed
Excerpt: as §1, with “The next day, cells are transfected with the reporter plasmid in the presence of JetPei reagent (Invitrogen).” left out
Each nonsense mutation (+9 nucleotides in each side) has been cloned into the dual reporter previously used. Stop codon readthrough efficiency has been quantified either without drug or in presence of gentamicin or TLN68, in 6 independent experiments. […]

[4] = system: -1 programmed ribosomal frameshifting from HIV-1; assay: Frameshifting test, dual reporter, NIH3T3 cells; assay type: cell-based, mouse; details: NIH3T3, TLN68 80 μM, HIV-1 frameshift signal
Experimental: To determinate if TLN68 alter global translational fidelity or if it is specific of readthrough event the inventors tested capacity of this molecule to induce frameshifting. They used a frameshift target which have already been used to study the minus1 frameshift signal of the retrovirus HIV-1 (Stahl et al, 1995). This 54 nucleotide sequence was inserted in the dual reporter vector and used to transfect NIH3T3 cells. Transfected cells were treated or not with TLN68 at 80 μM.

[5] = system: +1 programmed ribosomal frameshifting from OAZ1 gene; assay: Frameshifting test, dual reporter; assay type: cell-based; details: treated vs untreated cells (FIG. 8)
Excerpt: TLN468 has no impact on both −1 and +1 programmed ribosomal frameshifting (PRF). No significant difference is observed between treated and untreated cells (right and left bars respectively). TLN468 has been tested on −1 PRF from HIV-1 and +1 PRF from OAZ1 gene.

NIH3T3 cells = assay: WST1 tetrazolium viability assay, NIH3T3; assay type: cell-based, mouse; details: NIH3T3, 24 h, maximal dose used
Experimental: The inventors tested the effect of TLN68 on viability of NIH3T3, HDQ-P1 and HeLa cell lines by using a tetrazolium salt which is cleaved only by metabolically active cells. Cells were treated or not with a range of TLN68 doses during 24 h and viability was measured.

SMILES: Cc1nc(NC(=N)N)nc2ccccc12 [TLN68]
- readthrough level [1]: 11%
- stabilisation of TP53-R213X mRNA relative to untreated (TP53-R213X mRNA): 6 fold
- increase of the p53-dependent luciferase [2]: 3.5 fold
- readthrough compared with gentamicin on the DMD set of sequences ([3]; gentamicin 2.5 mM, same conditions): outperforms gentamicin
- number of DMD nonsense sequences on which readthrough is promoted ([3]; out of 40 tested, 6 independent experiments): 28
- impact on -1 translational frameshifting [4]: no impact on translational frameshifting
- impact on +1 programmed ribosomal frameshifting [5]: no impact
- viable cells (NIH3T3 cells): 80%
